Source: US20090326003A1, “PYRAZOLO (3, 4-B) PYRIDINE DERIVATIVES AS PDE4 INHIBITORS” (priority 2006, published 2009)

Columns and labels:
[1] = biological target: T1, PDE4B (human recombinant) (Homo sapiens, UniProt Q07343); experiment: PDE4B inhibition, fluorescence polarisation (FP) and/or SPA assay; assay type: biochemical; details: n=1 or average of 2 or more readings, accuracy ±about 0.5 log unit, read-out: PDE4B pIC50 (generally in FP assay) (±about 0.5) (converted)
T1 construct: made in house
T1 sequence (Q07343 1-564 isoform Q07343-2): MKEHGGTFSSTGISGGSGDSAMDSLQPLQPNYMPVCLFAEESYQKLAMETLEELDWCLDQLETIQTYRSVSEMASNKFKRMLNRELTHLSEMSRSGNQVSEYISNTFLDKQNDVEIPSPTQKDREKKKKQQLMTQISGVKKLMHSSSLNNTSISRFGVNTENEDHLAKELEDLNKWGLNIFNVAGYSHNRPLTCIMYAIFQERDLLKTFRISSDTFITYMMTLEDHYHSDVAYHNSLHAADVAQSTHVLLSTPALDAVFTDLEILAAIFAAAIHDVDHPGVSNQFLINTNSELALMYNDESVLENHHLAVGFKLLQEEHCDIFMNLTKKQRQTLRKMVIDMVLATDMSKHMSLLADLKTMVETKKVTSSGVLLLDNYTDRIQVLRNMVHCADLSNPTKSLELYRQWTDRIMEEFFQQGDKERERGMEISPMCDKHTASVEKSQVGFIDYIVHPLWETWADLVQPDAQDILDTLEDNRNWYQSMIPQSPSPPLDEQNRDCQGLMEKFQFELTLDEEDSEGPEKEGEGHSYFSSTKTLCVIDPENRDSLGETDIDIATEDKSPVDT
How it was run: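 Human recombinant PDE4B (yeast-expressed, HSPDE4B2B variant) preincubated with compound 10-30 min at ambient temperature; SPA with ~10 nM [3H]cAMP, 1 h, Tris-HCl pH 7.5, ≤20% hydrolysis; or IMAP FP with ~40 nM fluorescein-cAMP, Tris-HCl pH 7.2. pIC50 from 10-point curves (1.5 nM-30 uM).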

[2] = test system: TNF-α production in human PBMC (peripheral blood mononuclear cells); experiment: Inhibition of TNF-alpha production in human PBMC (IGEN technology); assay type: cell-based; details: inhibition of LPS-stimulated TNF-α production in human PBMC; measured and/or mean; read-out: PBMC pIC50 (IGEN assay) (converted)
Experimental: Test compounds are prepared as a ca. 10 mM stock solution in DMSO and a dilution series prepared in DMSO with 8 successive 3fold dilutions, either directly from the 10 mM stock solution or from a more dilute solution in DMSO. The compound is added to assay plates using a Biomek Fx liquid handling robot.
PBMC cells (peripheral blood mononuclear cells) are prepared from heparinised human blood from normal volunteers by centrifugation on histopaque at ca. 1000 g for ca. 30 minutes. The cells are collected from the interface, washed by centrifugation (ca. 1300 g, ca. 10 minutes) and resuspended in assay buffer (RPMI 1640 containing 10% foetal calf serum, 1% L-glutamine and 1% penicillin/streptomycin) at 1×10^6 cells/ml. Ca. 50 μl (ca. 50 ul) of cells are added to microtitre wells containing ca. 0.5 or ca. 1.0 μl (ul) of an appropriately diluted compound solution. Ca. […]
The supernatant is removed and the concentrations of TNF-α are determined by electrochemiluminescence assay using the IGEN technology or by ELISA (see below).
Ca. […] 50 μl (ul) of streptavidin/biotinylated anti-TNF-α antibody mix, ca. 25 μl ruthenium tagged anti-TNF-α monoclonal and ca. 100 μl PBS containing 0.1% bovine serum albumin are added to each well and the plates are sealed and shaken for ca. 2 hours before being read on an IGEN instrument.

| IC50 [1] [pM] | SMILES | IC50 [2] [pM] |
| --- | --- | --- |
| ~158 | CCc1nc2c(cnn2CC)c(NC2CCOCC2)c1CNC(=O)c1ccc(-c2ccc(C(=O)NCc3c(CC)nc4c(cnn4CC)c3NC3CCOCC3)cc2)cc1 [Example 23, N,N′-bis{[1,6-diethyl-4-(tetrahydro-2H-pyran-4-ylamino)-1H-pyrazolo[3,4-b]pyridin-5-yl]methyl}-4,4′-biphenyldicarboxamide] | ~50.1 |
| ~100 | CCn1ncc2c(NC3CCOCC3)c(CNC(=O)c3cccc(-c4cccc(C(=O)NCc5c(C)nc6c(cnn6CC)c5NC5CCOCC5)c4)c3)c(C)nc21 [Example 29, N,N′-bis{[1-ethyl-6-methyl-4-(tetrahydro-2H-pyran-4-ylamino)-1H-pyrazolo[3,4-b]pyridin-5-yl]methyl}-3,3′-biphenyldicarboxamide] | – |
| ~39.8 | CCc1nc2c(cnn2CC)c(NC2CCOCC2)c1CNC(=O)c1ccc(C(=O)NCc2c(CC)nc3c(cnn3CC)c2NC2CCOCC2)o1 [Example 35, N,N′-bis{[1,6-diethyl-4-(tetrahydro-2H-pyran-4-ylamino)-1H-pyrazolo[3,4-b]pyridin-5-yl]methyl}-2,5furandicarboxamide] | – |
